From US20070032477A1, “Pteridine derivatives useful for making pharmaceutical compositions” (priority 2003, published 2007)

Legend:
[1] = tested on: TNBS-induced colitis in C57 BL/6 male mice; assay: Trinitrobenzenesulfonate-induced colitis test in mice (Example 210); assay type: in vivo
Protocol: C57 BL/6 male mice (4-5 weeks) were obtained from M&B (Denmark), bred under standard pathogen-free conditions and maintained in the certified animal facility of the University Hospital Gasthuisberg, Catholic University of Leuven (Leuven, Belgium). Experiments were approved by the local Ethical Committee of Animal Experimentation. Colitis was induced by rectal administration of 1 mg trinitrobenzenesulphonate (hereinafter referred as TNBS) in 50% ethanol with 2 times pre-sensitization. Briefly, mice were sensitized twice 10 days and 5 days before challenge. For sensitization, a 2×2 cm field of the abdominal skin was shaved, and 100 μl of 5 mg TNBS in 50% ethanol solution was applied. On the day of challenge, mice were first lightly anesthetized with metofane, subsequently TNBS was administered per rectum via a round-tip needle equipped with a 1-ml syringe. The tip of the needle was inserted so that the tip was 3.5 to 4 cm proximal to the anal verge and TNBS was injected with a total volume of 100 μl. To ensure distribution of TNBS within the entire colon and cecum, mice were held in a vertical position for 1 minute after the injection.
The compound of example 17 (2-amino-4-[(N-phenoxyacetyl)-piperazin-1-yl]-6-(3,4-dimethoxy-phenyl)pteridine) was given by daily intra-peritoneal injection at the dose of 20 mg/kg (400 μg dissolved in 100 μl PBS with 10% DMSO). Control mice were treated with vehicle only. Body weights of all animals were recorded daily in order to follow the development of inflammatory colitis over a period of 10 days.
Both macroscopic and microscopic histology evaluations were performed as follows. Briefly, mice were sacrificed at day 2 by cervical […], the colon was excised and was immediately examined visually, and damage was scored on a 0-12 scale, as described previously by Shen et al. in Int. Immunopharmacol. (2004), 4:939-951. Colon sections were then fixed in 6% formalin and embedded in paraffin, cut into sections, and then stained with hematoxylin and eosin. Stained sections were examined for evidence of colitis using as criteria the presence of cell infiltration, elongation and/or distortion of crypts, crypt abscesses, reduction in goblet cell number, frank ulceration, and edema formation.
Myeloperoxidase (MPO) activity was measured as described previously by Shen et al. (cited supra). Briefly, two days after intracolonic injection of TNBS, 50 mg colon was removed, homogenised and sonicated on ice. Samples were frozen in liquid nitrogen and subsequently thawed in a water bath at 37° C., each step lasted 3 minutes and the procedure was repeated for two cycles. After centrifugation an aliquot of the supernatant was then allowed to react with a solution of tetra-methyl-benzidine (1.6 mM) and 0.1 mM H2O2. The rate of change in absorbance was measured spectrophotometrically at 460 nm. MPO activity was defined as the quantity of enzyme degrading 1 μmol of peroxide/minute at 37° C. and was expressed in units per gram weight of wet tissue. Sample enzyme activity was measured from a standard curve of known MPO unit activity (assay sensitivity 5×10^−7 units per well).
Serum levels of antibodies generated against TNBS were measured in the mouse sera on the 10th day after disease induction by enzyme-linked immunosorbent assay (ELISA). The ELISA method used herein is as reported in detail by Shen et al (cited supra).
Quantitative Reverse Transcriptase (RT)-PCR for cytokine mRNA was performed as follows: part of the colon removed on day 2 after TNBS application was immediately frozen in liquid nitrogen after dissection and stored at −70° C. until extraction of total RNA using the method of Shen et al (cited supra). A constant amount of 1 μg of total RNA was used for oligo-(dT)-primed cDNA synthesis (Ready-to-go-kit, Pharmacia, Uppsala, Sweden). After 90 minutes at 37° C., the reverse transcriptase was inactivated by incubating the cDNA samples for 5 minutes at 95° C. […]

[2] = tested on: LPS-induced shock in C3H mice; assay: Model of protection against septic shock (LPS); assay type: in vivo; settings: 100 μg LPS i.p., 20 mg/kg/day i.p. at time of injection and 24 hours later
Protocol: As a control group, 4 sham treated (saline injection) C3H mice being injected intraperitoneously with 100 μg lipopolysaccharide (hereinafter LPS) per mouse, all died within 1 to 3 days after injection.

[3] = Plasma levels after oral administration in healthy mice; assay type: in vivo, C57BL/6 mice
Protocol: Each group of 6 mice received the indicated dose at time point 0 and were bled at 1, 3 and 5 hours after compound administration. Quantification was performed using a calibration curve of known compound concentrations spiked in control serum.
The plasma levels of the tested compound (example 176) was evaluated in C57BL/6 mice 8-10 weeks old Harlan, weighing 18.6-22.0 g after oral administration of 20, 10, 5 and 1 mg/kg, respectively (n=6 per dose). The tested compound (example 176) was dissolved in water to the appropriate concentration in order to deliver a constant gavage volume of 10 μl/g of body weight. Blood was collected by eye bleeding with heparinized capillaries at 1, 3, and 5 hours after dosing from each animal. The plasma fraction was immediately separated by centrifugation for 2 minutes at 12,000 g and stored at −80° C. until analysis. Each plasma sample was spiked with internal standard followed by the addition of 4 volumes of methanol. The samples were kept for 30 minutes on ice prior to centrifugation (10 minutes at 12,000 g) in order to remove precipitated proteins. The supernatant was analyzed for the presence of the tested compound (example 176), using LC/MS/MS. As standard for the bio-analysis, the tested compound (example 176) was diluted stepwise; each dilution was added to control plasma; additionally spiked with internal standard, giving rise to standard curves from 200 to 40,000 nM.

Structure (SMILES) | days required to recover original body weight ([1]; daily i.p. 20 mg/kg) [days] | microscopic score ([1]; daily i.p. 20 mg/kg, day 2) | average macroscopic score ([1]; daily i.p. 20 mg/kg, day 2, 0-12 scale) | MPO activity in colon ([1]; daily i.p. 20 mg/kg, two days after TNBS) [U/g] | reduction in average macroscopic score ([1]; daily i.p. 20 mg/kg, versus control mice) [%] | cytokine mRNA levels for TNF-α, IL-18 and IFN-γ in colon ([1]; day 2, differences did not reach statistical significance) | Anti-TNBS antibody (IgG2a) levels ([1]; serum, after treatment) [OD] | Anti-TNBS antibody (IgG1) levels ([1]; serum, compared to untreated mice) | protection from acute shock related mortality [2] | serum level 5 hours after administration compared with TNF-alpha assay IC50 ([3]; 20 mg/kg oral) | circulating concentration (peak serum level) ([3]; 20 mg/kg oral, one hour after administration) | serum levels after 5 hours compared with TNF assay IC50 ([3]; all lower doses (10, 5 and 1 mg/kg oral)) | peak serum levels with increasing doses ([3]; oral 1, 5, 10, 20 mg/kg, one hour after administration)
COc1ccc(-c2cnc3nc(N)nc(N4CCN(C(=O)COc5ccccc5)CC4)c3n2)cc1OC [Example 17, 2-amino-4-[(N-phenoxyacetyl)-piperazin-1-yl]-6-(3,4-dimethoxy-phenyl)pteridine] | 6 | 6.0±0.7 | 6.3±0.7 | 8.9±2.0 | 30 | all reduced | 76.6±3.3 | significantly lower | all mice were protected from acute shock related mortality | – | – | – | –
COc1ccc(-c2cnc3nc(N)nc(N4CCN(c5ccc(C)cc5)CC4)c3n2)cc1OC [Example 176, 2-amino-6-(3,4-dimethoxyphenyl)-4-((4-methylphenyl)-piperazin-1-yl)pteridine] | – | – | – | – | – | – | – | – | – | still above the IC50 value of the TNF-alpha assay | approximately 1 μM | lower than the IC50 value in the TNF assay | dose-dependent increase
